This is an account of results in patent publication US12139520B2 (priority 2020, dated 2024).

The term EC50 denotes the concentration that produces a half-maximal response.

Numbered stars: 1 amine (or outer) side, 2 acyl side, 3 side chain; on linkers, the order of the positions; unused ones are H or OH. Bridge positions count the residues as written; N and C are the ends. Square brackets hold non-standard residues; d marks the D form. Peptide text beside a SMILES is read from it. * marks the point of attachment. C20 diacid = O=C(O)CCCCCCCCCCCCCCCCCCC(=O)*; γGlu = O=C(O)[C@H](CCC(=O)[*:2])N[*:1]; Hyp = O=C(O)[C@@H]1C[C@@H](O)CN1

This assay deals with T1, hAMY3 receptor (Homo sapiens, UniProt O60896+P30988).
T1 sequence (P30988 25-474): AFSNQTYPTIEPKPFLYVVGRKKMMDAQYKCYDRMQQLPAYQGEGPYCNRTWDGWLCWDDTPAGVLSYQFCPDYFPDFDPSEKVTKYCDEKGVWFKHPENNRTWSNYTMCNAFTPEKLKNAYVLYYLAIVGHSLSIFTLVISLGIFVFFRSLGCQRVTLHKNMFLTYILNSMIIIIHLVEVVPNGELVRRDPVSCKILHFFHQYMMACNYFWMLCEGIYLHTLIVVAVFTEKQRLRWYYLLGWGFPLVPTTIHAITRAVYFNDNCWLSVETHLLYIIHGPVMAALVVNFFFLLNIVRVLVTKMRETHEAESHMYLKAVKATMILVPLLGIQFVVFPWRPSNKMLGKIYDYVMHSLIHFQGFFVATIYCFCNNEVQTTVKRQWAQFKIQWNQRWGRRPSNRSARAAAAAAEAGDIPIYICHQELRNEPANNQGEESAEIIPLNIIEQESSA
T1 sequence (O60896 24-148 partner): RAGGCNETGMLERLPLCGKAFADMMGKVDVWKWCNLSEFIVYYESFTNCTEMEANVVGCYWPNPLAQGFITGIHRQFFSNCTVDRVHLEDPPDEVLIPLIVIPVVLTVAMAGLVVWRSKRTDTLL
Put plainly: cAMP assay for in vitro receptor activation, hAMY3-R. The settings on record: cAMP assay, hAMY3 receptor; read-out: hAMY3R EC50. It counts as cell-based. Here is the method: General Protocols for cAMP Assays for Measuring In Vitro Receptor Activation
Cells stably overexpressing the hAMY3 receptor were obtained from Ogeda (now Astellas Pharma), sub-cloned and a monoclonal cell-line with an appropriate assay-window was expanded, aliquoted and frozen.
An aliquot was thawed and plated in DPBS with 0.05% casein and 0.5 mM IBMX as 2000 cells/well in a 384-well format. The cells were then immediately stimulated for 30 min at room temperature with graded doses of test compound using human amylin (Bachem, cat no. H-7905) as a positive control. cAMP accumulation was measured using a Cisbio assay for Gs coupled receptors (cat. no. 62AM4PEC), where the assay reagents were added as per the manufacturer's instructions and time-resolved fluorescence energy transfer recorded after one hour.
A general note: cAMP levels reflect the balance of adenylyl cyclase and phosphodiesterase activity.
Consider `CC(C)C[C@H](NC(=O)[C@H](CCCNC(=N)N)NC(=O)[C@H](CCC(N)=O)NC(=O)[C@@H](NC(=O)[C@@H](NC(=O)[C@@H]1CSSC[C@H](NC(=O)CN)C(=O)N[C@@H](CCCNC(=N)N)C(=O)N[C@@H](Cc2ccccc2)C(=O)N[C@@H](C)C(=O)N[C@@H]([C@@H](C)O)C(=O)N1)[C@@H](C)O)C(C)C)C(=O)N[C@@H](C)C(=O)N[C@@H](Cc1c[nH]cn1)C(=O)N[C@@H](Cc1ccccc1)C(=O)N[C@@H](CC(C)C)C(=O)N[C@@H](Cc1ccc(O)cc1)C(=O)N[C@@H](CCC(N)=O)C(=O)N[C@@H](Cc1ccccc1)C(=O)N[C@H](C(=O)N[C@@H](CC(=O)O)C(=O)N[C@@H](CCCCN)C(=O)N[C@@H](CC(=O)O)C(=O)N[C@@H](CCCCN)C(=O)N[C@@H](CC(=O)O)C(=O)N[C@@H](CC(N)=O)C(=O)N[C@H](C(=O)N[C@@H](C)C(=O)N1CCC[C@H]1C(=O)N[C@@H](CCCNC(=N)N)C(=O)N[C@H](C(=O)N[C@@H](CCCCN)C(=O)N[C@H](C(=O)NCC(=O)N1CCC[C@H]1C(=O)N[C@@H](CCC(N)=O)C(=O)NCC(=O)N[C@@H](Cc1ccc(O)cc1)C(N)=O)C(C)C)[C@@H](C)O)C(C)C)[C@@H](C)O` [compound 377] (H-GCRFATCTVQRLAHFLYQFTDKDKDNVAPRTKVGPQGY-NH2; disulfide 2-7; N-terminus assumed), for which the concentration giving a half-maximal response (EC50) turned out to be 0.024 nM.
As to `CC[C@H](C)[C@H](NC(=O)[C@H](CCCCN)NC(=O)[C@H](CO)NC(=O)[C@H](CCCNC(=N)N)NC(=O)[C@@H]1CCCN1C(=O)[C@H](C)NC(=O)[C@@H](NC(=O)[C@H](CC(N)=O)NC(=O)[C@H](CC(=O)O)NC(=O)[C@H](CCCCN)NC(=O)[C@H](CC(=O)O)NC(=O)[C@H](CCCCN)NC(=O)[C@H](CC(=O)O)NC(=O)[C@@H](NC(=O)[C@H](Cc1ccccc1)NC(=O)[C@H](CCC(N)=O)NC(=O)[C@@H](NC(=O)[C@H](CC(C)C)NC(=O)[C@H](Cc1ccccc1)NC(=O)[C@H](CC(N)=O)NC(=O)[C@H](C)NC(=O)[C@H](CC(C)C)NC(=O)[C@H](CCCNC(=N)N)NC(=O)[C@H](CCC(N)=O)NC(=O)[C@@H](NC(=O)[C@H](C)NC(=O)[C@@H]1CSSC[C@H](NC(=O)[C@H](CCCCN)NC(=O)CC[C@H](NC(=O)CCCCCCCCCCCCCCCCCCC(=O)O)C(=O)O)C(=O)N[C@@H](CC(N)=O)C(=O)N[C@@H](Cc2ccccc2)C(=O)N[C@@H](C)C(=O)N[C@@H]([C@@H](C)O)C(=O)N1)[C@@H](C)O)C(C)C)[C@@H](C)O)C(C)C)C(=O)NCC(=O)N1CCC[C@H]1C(=O)N[C@@H](CCC(N)=O)C(=O)NCC(=O)N[C@@H](Cc1ccc(O)cc1)C(N)=O` [compound 389] ({C20 diacid-γGlu}-KCNFATCATQRLANFLVQFTDKDKDNVAPRSKIGPQGY-NH2; disulfide 2-7), the EC50 was 0.045 nM.
As to `CC[C@H](C)[C@H](NC(=O)[C@H](CCCCN)NC(=O)[C@H](CO)NC(=O)[C@H](CCCNC(=N)N)NC(=O)[C@@H]1CCCN1C(=O)[C@H](C)NC(=O)[C@@H](NC(=O)[C@H](CC(N)=O)NC(=O)[C@H](CC(=O)O)NC(=O)[C@H](CCCCN)NC(=O)[C@H](CC(=O)O)NC(=O)[C@H](CCCCN)NC(=O)[C@H](CC(=O)O)NC(=O)[C@@H](NC(=O)[C@H](Cc1ccccc1)NC(=O)[C@H](CCC(N)=O)NC(=O)[C@@H](NC(=O)[C@H](CC(C)C)NC(=O)[C@H](Cc1ccccc1)NC(=O)[C@H](CC(N)=O)NC(=O)[C@H](C)NC(=O)[C@H](CC(C)C)NC(=O)[C@H](CCCNC(=N)N)NC(=O)[C@H](CCC(N)=O)NC(=O)[C@@H](NC(=O)[C@H](C)NC(=O)[C@@H]1CSSC[C@H](NC(=O)[C@@H](N)CCCCN)C(=O)N[C@@H](CC(N)=O)C(=O)N[C@@H](Cc2ccccc2)C(=O)N[C@@H](C)C(=O)N[C@@H]([C@@H](C)O)C(=O)N1)[C@@H](C)O)C(C)C)[C@@H](C)O)C(C)C)C(=O)NCC(=O)N1CCC[C@H]1C(=O)N[C@@H](CCC(N)=O)C(=O)NCC(=O)N[C@@H](Cc1ccc(O)cc1)C(N)=O` [compound 363] (H-KCNFATCATQRLANFLVQFTDKDKDNVAPRSKIGPQGY-NH2; disulfide 2-7; N-terminus assumed), the EC50 turned out to be 0.01 nM.
In the case of `CC[C@H](C)[C@H](NC(=O)[C@H](CC(N)=O)NC(=O)[C@@H](NC(=O)[C@H](CCCNC(=N)N)NC(=O)[C@@H]1CCCN1C(=O)[C@H](C)NC(=O)[C@@H](NC(=O)[C@H](CC(N)=O)NC(=O)[C@H](CC(=O)O)NC(=O)[C@H](CCCCN)NC(=O)[C@H](CC(=O)O)NC(=O)[C@H](CCCCN)NC(=O)[C@H](CC(=O)O)NC(=O)[C@@H](NC(=O)[C@H](Cc1ccccc1)NC(=O)[C@H](CCC(N)=O)NC(=O)[C@H](Cc1ccc(O)cc1)NC(=O)[C@@H](NC(=O)[C@H](CCC(N)=O)NC(=O)[C@H](Cc1c[nH]cn1)NC(=O)[C@H](C)NC(=O)[C@H](CC(C)C)NC(=O)[C@H](CCCNC(=N)N)NC(=O)[C@H](CCC(N)=O)NC(=O)[C@@H](NC(=O)[C@@H](NC(=O)[C@@H]1CSSC[C@H](NC(=O)CN)C(=O)N[C@@H](CCCNC(=N)N)C(=O)N[C@@H]([C@@H](C)O)C(=O)NCC(=O)N[C@@H]([C@@H](C)O)C(=O)N1)[C@@H](C)O)C(C)C)[C@@H](C)CC)[C@@H](C)O)C(C)C)[C@@H](C)O)C(=O)NCC(=O)N1CCC[C@H]1C(=O)N[C@@H](CC(N)=O)C(=O)NCC(=O)N[C@@H](Cc1ccc(O)cc1)C(N)=O` [compound 142] (H-GCRTGTCTVQRLAHQIYQFTDKDKDNVAPRTNIGPNGY-NH2; disulfide 2-7; N-terminus assumed) it was 0.036 nM.
On to `CC[C@H](C)[C@H](NC(=O)[C@H](CCC(N)=O)NC(=O)[C@H](Cc1c[nH]cn1)NC(=O)[C@H](C)NC(=O)[C@H](CC(C)C)NC(=O)[C@H](CCCNC(=N)N)NC(=O)[C@H](CCC(N)=O)NC(=O)[C@@H](NC(=O)[C@@H](NC(=O)[C@@H]1CSSC[C@H](NC(=O)[C@H](CCCCN)NC(=O)CC[C@H](NC(=O)CCCCCCCCCCCCCCCCCCC(=O)O)C(=O)O)C(=O)N[C@@H](CC(N)=O)C(=O)N[C@@H]([C@@H](C)O)C(=O)N[C@@H](C)C(=O)N[C@@H]([C@@H](C)O)C(=O)N1)[C@@H](C)O)C(C)C)C(=O)N[C@@H](C)C(=O)N[C@@H](CCC(N)=O)C(=O)N[C@@H](Cc1ccccc1)C(=O)N[C@H](C(=O)N[C@@H](CC(=O)O)C(=O)N[C@@H](CCCCN)C(=O)N[C@@H](CC(=O)O)C(=O)N[C@@H](CCCCN)C(=O)N[C@@H](CC(=O)O)C(=O)N1CCC[C@H]1C(=O)N[C@H](C(=O)N[C@@H](C)C(=O)N1CCC[C@H]1C(=O)N1CCC[C@H]1C(=O)N[C@H](C(=O)N[C@@H](CC(N)=O)C(=O)N[C@H](C(=O)NCC(=O)N[C@@H](CO)C(=O)N[C@@H](CC(N)=O)C(=O)NCC(=O)N1C[C@H](O)C[C@H]1C(N)=O)C(C)C)[C@@H](C)O)C(C)C)[C@@H](C)O` [compound 92] ({C20 diacid-γGlu}-KCNTATCTVQRLAHQIAQFTDKDKDPVAPPTNVGSNG[Hyp]-NH2; disulfide 2-7), for which the EC50 amounted to 0.016 nM.
In the case of `CC[C@H](C)[C@H](NC(=O)[C@H](CC(N)=O)NC(=O)[C@H](CO)NC(=O)[C@H](CCCNC(=N)N)NC(=O)[C@@H]1CCCN1C(=O)[C@H](C)NC(=O)[C@@H](NC(=O)[C@H](CC(N)=O)NC(=O)[C@H](CC(=O)O)NC(=O)[C@H](CCCCN)NC(=O)[C@H](CC(=O)O)NC(=O)[C@H](CCCCN)NC(=O)[C@H](CC(=O)O)NC(=O)[C@@H](NC(=O)[C@H](Cc1ccccc1)NC(=O)[C@H](CCC(N)=O)NC(=O)[C@H](Cc1ccc(O)cc1)NC(=O)[C@@H](NC(=O)[C@H](CCC(N)=O)NC(=O)[C@H](Cc1c[nH]cn1)NC(=O)[C@H](C)NC(=O)[C@H](CC(C)C)NC(=O)[C@H](CCCNC(=N)N)NC(=O)[C@H](CCC(N)=O)NC(=O)[C@@H](NC(=O)[C@@H](NC(=O)[C@@H]1CSSC[C@H](NC(=O)CN)C(=O)N[C@@H](CCCNC(=N)N)C(=O)N[C@@H](Cc2ccccc2)C(=O)NCC(=O)N[C@@H]([C@@H](C)O)C(=O)N1)[C@@H](C)O)C(C)C)[C@@H](C)CC)[C@@H](C)O)C(C)C)C(=O)NCC(=O)N1CCC[C@H]1C(=O)N[C@@H](CCC(N)=O)C(=O)NCC(=O)N[C@@H](Cc1ccc(O)cc1)C(N)=O` [compound 382] (H-GCRFGTCTVQRLAHQIYQFTDKDKDNVAPRSNIGPQGY-NH2; disulfide 2-7), the EC50 is 0.034 nM.
